In US20150266864A1, “HETEROAROMATIC COMPOUNDS, METHOD FOR PREPARING THE COMPOUNDS, PHARMACEUTICAL COMPOSITIONS, USES AND METHOD FOR TREATING ACUTE AND CHRONIC PAIN” (CRISTÁLIA PRODUTOS QUÍMICOS FARMACÊUTICOS LTDA, priority 2012, published 2015):

Columns and labels:
Swiss-type male mice = assay: RotaRod performance test, motor coordination; details: for Mice residence time on the rotational cylinder: 9 rpm, cut off 180 s, mean ± SEM
[1] = test system: rats subjected to sciatic nerve CCI; assay: Chronic constrictive injury (CCI) of the sciatic nerve, thermal hyperalgesia, paw withdrawal test; format: in vivo, rat; details: 32.25 μmol/kg ip
Protocol: The chronic constrictive injury (CCI) was induced by sciatic nerve ligation according to the method described by Bennett and Xie [Bennett. G. J.; Xie, Y. K. Pain […], 33: 87-107]. Male Wistar rats, weighing 180-240 g, were anesthetized with a mixture of ketamine and xylazine (60 mg/kg and 5 mg/kg, respectively), intraperitoneally. Through an incision of 0.5 cm (parallel and spaced about 10 mm from the left femur) the sciatic nerve was identified. With a thin glass rod, a small segment of sciatic nerve was exposed and four loosely ligatures were placed around the sciatic nerve spaced 1 mm each other using a 3-0 silk suture thread. After the procedure, the skin was sutured and a topical antiseptic was applied.
To assess animal behavior in response to hyperalgesic phenomenon resulting from sciatic nerve chronic constrictive injury, the model described by Hargreaves and Dubner was used [Hargreaves K., Dubner R., Brown F., Flores C., Joris J. Pain 1988, 32 (1): 77-88]. In this regard, paw withdrawal in response to a painful phenomenon was performed. This is a nociceptive test which involves a peripheral short thermal stimulus induced by the radiant heat of an incandescent lamp bulb. […] Radiant heat has an advantage over the other modes of thermal stimulation in that it produces no tactile stimulus. [Le Bars D., Gozariu M., Cadden S. W. Pharmacology Reviews, 2001, 53 (4), 597-652]. In this assay, a plantar test analgesimeter (ITC Life Science Inc, USA) was used.
Animals were placed in transparent acrylic boxes with tempered glass pane floor for 40 minutes to acclimate. After this period, the radiant heat was applied to the footpads of animals's hindpaws until they make the movement of paw withdrawal. The paw withdrawal latency was defined as the time recorded from the beginning of the radiant heat stimulus and the paw withdrawal. For each paw, three latency records were made, and the average value was used to define the paw withdrawal time control The maximum time that each animal was exposed to the radiant heat source (cut-off) was defined as three times the paw withdrawal time control, to avoid tissue injuries in animals's paws.
The day before surgery, rats, defined as “control before surgery”, were placed in acrylic boxes to the paw withdrawal test. On the 7th day after the surgery (CCI), the paw withdrawal test was again performed in order to verify neuropathic pain has been effectively developed in the left paw—defined as “post-surgery control.”
The paw withdrawal test was assessed during the days 1, 3, and 7 of the treatment (with amitriptyline hydrochloride or the compounds of examples of the instant invention) and on days 1, 3, and 7 after treatment interruption.
Differences were considered significant when p<0.05.

rats subjected to SNL [2] = assay: Spinal nerve ligation (SNL) L5 model, thermal hyperalgesia; format: in vivo, rat; details: for paw withdrawal latency, thermal hyperalgesia: after 7 days of treatment, 32.25 μmol/kg ip; for reversal of hyperalgesia signs associated with neuropathic pain: ip during 7 days, 32.25 μmol/kg
rats subjected to SNL [3] = assay: Spinal nerve ligation (SNL) L5 model, mechanical allodynia (digital Von Frey); format: in vivo, rat; details: ip during 7 days, 32.25 μmol/kg
[4] = T 15 min after ip administration, 32.25 μmol/kg
[5] = T 30 min after ip administration, 32.25 μmol/kg (diazepam 2 mg/kg)
[6] = T 60 min after ip administration, 32.25 μmol/kg (diazepam 2 mg/kg)
[7] = T 120 min after ip administration, 32.25 μmol/kg (diazepam 2 mg/kg)

Compound | animal residence time on the rotational cylinder compared to controls (Swiss-type male mice; 15 minutes after administration, 32.25 μmol/kg) | Mice residence time on the rotational cylinder (Swiss-type male mice; [4]) [s] | Mice residence time on the rotational cylinder (Swiss-type male mice; [5]) [s] | Mice residence time on the rotational cylinder (Swiss-type male mice; [6]) [s] | Mice residence time on the rotational cylinder (Swiss-type male mice; [7]) [s] | increase in latency of paw withdrawal ([1]; since the 3rd day of treatment, p<0.05 or p<0.005) | paw withdrawal latency, thermal hyperalgesia (rats subjected to SNL [2]) | reversal of hyperalgesia signs associated with neuropathic pain (rats subjected to SNL [2]) | reversal of allodynia signs associated with neuropathic pain (rats subjected to SNL [3]) | antinociceptive effect, paw withdrawal latency vs post-surgery control ([1]; first day of treatment) | latency increase, statistical significance ([1]; first day of treatment, p<0.05 or p<0.005)
Cl.Cl.Fc1ccc(-c2n[nH]cc2CCN2CCOCC2)cc1.O [C9, 4-{2-[3-(4-fluorophenyl)-1H-pyrazol-4-yl]ethyl}morpholine dihydrochloride monohydrate] | equal to the time observed for the negative control, and significantly higher than the time observed for the control amitriptyline hydrochloride | 180.0 | 180.0 | 180.0 | 175.3 | statistically significant increase in latency of paw withdrawal | statistically significant antinociceptive effect | effective in reverse the hyperalgesia and allodynia signs | effective in reverse the hyperalgesia and allodynia signs |  | 
CCOC(=O)C1(c2ccccc2)CCN(CCc2conc2-c2ccc(F)cc2)CC1.Cl [C17, Ethyl 1-{2-[3-(4-fluorophenyl)-1,2-oxazol-4-yl]ethyl}-4-phenylpiperidine-4-carboxylate hydrochloride] |  | 127.4 | 153.3 | 163.2 | 175.6 |  | statistically significant antinociceptive effect | effective in reverse the hyperalgesia and allodynia signs | effective in reverse the hyperalgesia and allodynia signs | antinociceptive effects in the first day of treatment | the latency increase was statistically significant
